Molecular target: Shp2 (Homo sapiens (Human), UniProt Q06124)
Assay: PTP activity assay (DiFMUP substrate) with GST-Shp2
Assay type: biochemical
Details: for IC50: Table II, Shp2
Description: All constructs were verified by DNA sequencing.
Recombinant DEP1 was from Abcam.

Sequence of Shp2 (Q06124 205-593): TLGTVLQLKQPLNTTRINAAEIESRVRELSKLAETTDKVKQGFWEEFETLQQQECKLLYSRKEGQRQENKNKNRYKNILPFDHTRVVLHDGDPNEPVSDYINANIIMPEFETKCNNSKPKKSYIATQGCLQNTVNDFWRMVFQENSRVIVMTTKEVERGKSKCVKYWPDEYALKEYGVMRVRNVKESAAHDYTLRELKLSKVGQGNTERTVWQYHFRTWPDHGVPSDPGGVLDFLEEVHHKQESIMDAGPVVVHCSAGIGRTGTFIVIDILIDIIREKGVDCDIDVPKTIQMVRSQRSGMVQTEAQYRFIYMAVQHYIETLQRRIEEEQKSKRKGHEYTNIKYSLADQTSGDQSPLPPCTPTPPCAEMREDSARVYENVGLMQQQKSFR

Question: With `CCNC(=O)c1cccc(N/N=C2\C(=O)Nc3ccc(S(=O)(=O)NC(C)C)cc32)c1` [RPM331, N-Ethyl-3-[N′-(5-isopropylsulfamoyl-2-oxo-1,2-dihydro-indol-3-ylidene)hydrazino]benzamide] as the compound, how does the “% PTP activity” value (at 20 μM) read?
Answer: 45 + 2% 92) at 20 μM

Question: How did the “% PTP activity” value (at 20 μM) turn out when `CC(C)NS(=O)(=O)c1ccc2c(c1)/C(=N/Nc1ccccc1)C(=O)N2` [RPM275, 3-(Phenylhydrazono)-2-oxo-2,3-dihydro-1H-indole-5-sulfonic acid isopropylamide] was run?
Answer: 58.53% (1) at 20 μM

Question: For `O=C1Nc2ccc(S(=O)(=O)NCC3CCCO3)cc2/C1=N/Nc1ccccc1[N+](=O)[O-]` (stereo not shown) [RPM172, 3-[(2-Nitrophenyl)hydrazono]-2-oxo-2,3-dihydro-1H-indole-5-sulfonic acid (tetrahydrofuran-2-ylmethyl)amide], which “% PTP activity” value (concentration not given) is on record?
Answer: 35 ± 5% (12)

Question: How did the IC50 turn out when `COC(=O)c1ccccc1N/C=C1\C(=O)Nc2ccc(S(=O)(=O)NC(C)C)cc21` [RPM335, 2-[(5-Isopropylsulfamoyl-2-oxo-1,2-dihydro-indol-3-ylidenemethyl)amino]benzoic acid methyl ester] was run?
Answer: 33 to 100 µM

Question: What about the “% PTP activity” value (at 20 μM) of the same compound?
Answer: 54.19% (1) At 20 μM

Question: `O=C1Nc2ccc(S(=O)(=O)O)cc2/C1=N/Nc1ccccc1C(F)(F)F` [RPM221, 2-Oxo-3-[(2-trifluoromethylphenylhydrazono)]-2,3-dihydro-1H-indole-5-sulfonic acid] was tested. Which IC50 did it give?
Answer: 33 to 100 µM

Question: And the “% PTP activity” value (at 20 μM)?
Answer: 63 ± 4% (3) at 20 μM

Question: What does the source list for `CCc1ccccc1N/N=C1\C(=O)Nc2ccc(S(=O)(=O)O)cc21` [RPM219, 2-Oxo-3-[(2-ethylphenylhydrazono)]-2,3-dihydro-1H-indole-5-sulfonic acid]?
Answer: IC50: 33 to 100 µM; % PTP activity (at 20 μM): 89 ± 2% (3) at 20 μM

Question: Which “% PTP activity” value (concentration not given) does the source give for `O=C(O)c1ccc2cc(C(=O)Nc3ccccc3)ccc2c1` [RPM183] here?
Answer: 79 ± 16 (7) %

Question: For `COCCNC(=O)c1ccccc1N/N=C1\C(=O)Nc2ccc(S(=O)(=O)NC(C)C)cc21` [RPM285, 2-[N′-(5-Isopropylsulfamoyl-2-oxo-1,2-dihydro-indol-3-ylidene)-hydrazino]-N-(2-methoxyethyl)benzamide], which “% PTP activity” value (at 20 μM) is on record?
Answer: 51 ± 7% (2) At 20 μM

Question: `CC(C)NS(=O)(=O)c1ccc2c(c1)/C(=C/Nc1ccccc1[N+](=O)[O-])C(=O)N2` [RPM303, 3-[(2-Nitrophenylamino)methylene]-2-oxo-2,3-dihydro-1H-indole-5-sulfonic acid isopropylamide] was tested. Which “% PTP activity” value (at 20 μM) did it give?
Answer: 46 ± 1% (2) 20 μM

Question: With `O=C1Nc2ccc(S(=O)(=O)NCc3ccccn3)cc2/C1=N/Nc1ccccc1Cl` [HL2-016-7] as the compound, how does the “% PTP activity” value (concentration not given) read?
Answer: 41 ± 23% (12)

Question: Which IC50 does the source give for `O=C1Nc2ccccc2/C1=N/Nc1ccccc1Cl` [HL1-050-1] here?
Answer: 33 to 100 µM

Question: What about the “% PTP activity” value (concentration not given) of the same compound?
Answer: 99 ± 2% (3)

Question: `CC(C)NS(=O)(=O)c1ccc2c(c1)/C(=N/Nc1ccccc1C(=O)NCCN1CCOCC1)C(=O)N2` [RPM293, 2-[N′-(5-Isopropylsulfamoyl-2-oxo-1,2-dihydro-indol-3-ylidene)hydrazino]-N-(2-morpholin-4-yl-ethyl)benzamide] was tested. Which “% PTP activity” value (at 20 μM) did it give?
Answer: 49 ± 6% (2) At 20 μM

Question: With `CCNC(=O)c1ccccc1N/N=C1\C(=O)Nc2ccc(S(=O)(=O)NC(C)C)cc21` [RPM296, N-Ethyl-2-[N′-(5-isopropylsulfamoyl-2-oxo-1,2-dihydro-indol-3-ylidene)hydrazino]benzamide] as the compound, how does the “% PTP activity” value (at 20 μM) read?
Answer: 48 ± 2% (2) At 20 μM

Question: With `O=C1Nc2ccc(S(=O)(=O)O)cc2/C1=N/Nc1c(F)c(F)c(F)c(F)c1F` [RPM222, 2-Oxo-3-(pentafluorophenylhydrazono)-2,3-dihydro-1H-indole-5-sulfonic acid] as the compound, how does the IC50 read?
Answer: 33 to 100 µM

Question: And the “% PTP activity” value (at 20 μM)?
Answer: 58 ± 6% (3) at 20 μM

Question: How did the “% PTP activity” value (at 20 μM) turn out when `COCCNC(=O)c1cccc(N/N=C2\C(=O)Nc3ccc(S(=O)(=O)NC(C)C)cc32)c1` [RPM327, 3-[N′-(5-Isopropylsulfamoyl-2-oxo-1,2-dihydro-indol-3-ylidene)hydrazino]-N-(2-methoxyethyl)benzamide] was run?
Answer: 44 + 7% (2) at 20 μM

Question: For `O=C(O)c1ccc(NC(=O)c2ccc3cc(C(=O)O)ccc3c2)cc1` [RPM194], which “% PTP activity” value (at 20 μM) is on record?
Answer: 69 ± 7.5% (3) at 20 uM

Question: `CCc1ccccc1N/N=C1\C(=O)Nc2ccc(C(=O)O)cc21` [RPM320, 3-[(2-Ethylphenyl)hydrazono]-2-oxo-2,3-dihydro-1H-indole-5-carboxylic acid] was tested. Which “% PTP activity” value (at 20 μM) did it give?
Answer: 44 ± 5% (2) At 20 μM

Question: With `COc1cccc(CNS(=O)(=O)c2ccc3c(c2)/C(=N/Nc2ccccc2Cl)C(=O)N3)c1` [HL2-016-5] as the compound, how does the “% PTP activity” value (concentration not given) read?
Answer: 51 ± 4% (6)

Question: `CN(C)S(=O)(=O)c1ccc2c(c1)/C(=N/Nc1ccccc1[N+](=O)[O-])C(=O)N2Cc1ccccc1` [RPM156] was tested. Which “% PTP activity” value (concentration not given) did it give?
Answer: 34 ± 4% (12)

Question: For `O=C1Nc2ccc(S(=O)(=O)O)cc2/C1=N/Nc1ccccc1C(=O)O` [RPM211, 2-[N′-(2-Oxo-5-sulfo-1,2-dihydro-indol-3-ylidene)hydrazino]benzoic acid], which IC50 is on record?
Answer: 33 to 100 µM

Question: What about the “% PTP activity” value (at 20 μM) of the same compound?
Answer: 67 ± 8% at 20 μM

Question: How did the IC50 turn out when `CCOC(=O)c1cccc(N/C=C2\C(=O)Nc3ccc(S(=O)(=O)NC(C)C)cc32)c1` [RPM302, 3-[(5-Isopropylsulfamoyl-2-oxo-1,2-dihydro-indol-3-ylidenemethyl)amino]benzoic acid ethyl ester] was run?
Answer: 33 to 100 µM

Question: And the “% PTP activity” value (at 20 μM)?
Answer: 51 ± 7% (2) at 20 μM

Question: For `CC(C)NS(=O)(=O)c1ccc2c(c1)/C(=N/Nc1cccc(C(=O)NCc3ccccc3)c1)C(=O)N2` [RPM328, N-Benzyl-3-[N′-(5-isopropylsulfamoyl-2-oxo-1,2-dihydro-indol-3-ylidene)hydrazino]benzamide], which “% PTP activity” value (at 20 μM) is on record?
Answer: 47 ± 3% (2) at 20 μM

Question: How did the “% PTP activity” value (at 20 μM) turn out when `O=C1Nc2ccc(S(=O)(=O)O)cc2/C1=N/Nc1ccccc1` [RPM215, 2-Oxo-3-(phenylhydrazono)-2,3-dihydro-1H-indole-5-sulfonic acid] was run?
Answer: 51 ± 3% (3) at 20 μM

Question: For `CC(C)CNS(=O)(=O)c1ccc2c(c1)/C(=N/Nc1ccccc1Cl)C(=O)N2` [HL2-016-10], which “% PTP activity” value (concentration not given) is on record?
Answer: 36 ± 17 (12) %

Question: How did the “% PTP activity” value (concentration not given) turn out when `COc1cccc(CNS(=O)(=O)c2ccc3c(c2)/C(=N/Nc2ccccc2[N+](=O)[O-])C(=O)N3)c1` [RPM137, 3-[(2-Nitrophenyl)hydrazono]-2-oxo-2,3-dihydro-1H-indole-5-sulfonic acid 3-methoxybenzylamide] was run?
Answer: 31 ± 4% (12)

Question: How did the “% PTP activity” value (at 20 μM) turn out when `O=C1Nc2ccc(C(=O)NCc3ccc(Cl)cc3)cc2/C1=N/Nc1cccc(C(=O)O)c1` [HL2-070-9] was run?
Answer: 25 ± 2% (2) at 20 μM

Question: Which “% PTP activity” value (concentration not given) does the source give for `O=C(O)c1ccc2cc(C(=O)Nc3cccc(S(=O)(=O)O)c3)ccc2c1` [HL2-022-2] here?
Answer: 52 ± 17% (5)

Question: How did the IC50 turn out when `O=C1Nc2ccc(C(=O)O)cc2/C1=N/Nc1ccccc1Cl` [RPM270] was run?
Answer: 33 to 100 µM

Question: What about the “% PTP activity” value (at 20 μM) of the same compound?
Answer: 45 ± 18% (2) At 20 μM

Question: Which IC50 does the source give for `CC(C)NS(=O)(=O)c1ccc2c(c1)/C(=C/Nc1ccccc1C(=O)O)C(=O)N2` [RPM336, 2-[(5-Isopropylsulfamoyl-2-oxo-1,2-dihydro-indol-3-ylidenemethyl)amino]benzoic acid] here?
Answer: 33 to 100 µM

Question: What about the “% PTP activity” value (at 20 μM) of the same compound?
Answer: 48 ± 7% (2) at 20 μM

Question: Which IC50 does the source give for `CC(C)NS(=O)(=O)c1ccc2c(c1)/C(=C/Nc1ccc(C(=O)O)cc1)C(=O)N2` [RPM305, 4-[(5-Isopropylsulfamoyl-2-oxo-1,2-dihydro-indol-3-ylidenemethyl)amino]benzoic acid] here?
Answer: 33 to 100 µM

Question: And the “% PTP activity” value (at 20 μM)?
Answer: 56.77% (1) at 20 μM

Question: With `NS(=O)(=O)c1ccc2c(c1)/C(=N/Nc1ccccc1C(=O)O)C(=O)N2` [RPM188, 2-[N′-(2-Oxo-5-sulfamoyl-1,2-dihydro-indol-3-ylidene)hydrazino]benzoic acid] as the compound, how does the “% PTP activity” value (at 20 μM) read?
Answer: 65 ± 3% (3) at 20 μM

Question: `CCC(C)NS(=O)(=O)c1ccc2c(c1)/C(=N/Nc1ccccc1[N+](=O)[O-])C(=O)N2` (stereo not shown) [RPM173, 3-[(2-Nitrophenyl)hydrazono]-2-oxo-2,3-dihydro-1H-indole-5-sulfonic acid sec-butylamide] was tested. Which “% PTP activity” value (concentration not given) did it give?
Answer: 33 ± 7% (12)

Question: How did the “% PTP activity” value (at 20 μM) turn out when `CC(C)NC(=O)c1ccc2c(c1)/C(=N/Nc1cccc(C(=O)O)c1)C(=O)N2` [HL2-070-7] was run?
Answer: 53.62% (1) at 20 μM

Question: For `O=C1Nc2ccc(S(=O)(=O)NCc3ccncc3)cc2/C1=N/Nc1ccccc1Cl` [HL2-016-15], which “% PTP activity” value (concentration not given) is on record?
Answer: 48 ± 5% (6)

Question: For `O=C1Nc2ccc(S(=O)(=O)NCC3CCCO3)cc2/C1=N/Nc1ccccc1Cl` (stereo not shown) [HL2-016-14], which “% PTP activity” value (concentration not given) is on record?
Answer: 42 ± 5% (6)

Question: Which “% PTP activity” value (concentration not given) does the source give for `O=C1Nc2ccc(S(=O)(=O)NCc3ccco3)cc2/C1=N/Nc1ccccc1Cl` [HL2-016-11] here?
Answer: 55 ± 7% (6)

Question: For `O=C1C=CC2C(=C1O)Oc1c(ccc(O)c1O)C2C1CCCCC1C(=O)O` (stereo not shown) [NSC-119910, reference compound], which “% PTP activity” value (concentration not given) is on record?
Answer: 0.56 ± 0.1% (3)

Question: How did the IC50 turn out when `O=C1Nc2ccc(S(=O)(=O)O)cc2/C1=N/Nc1cccc([N+](=O)[O-])c1` [HL1-058-2] was run?
Answer: 33 to 100 µM

Question: What about the “% PTP activity” value (concentration not given) of the same compound?
Answer: 73 ± 7% (3)

Question: For `O=C1Nc2ccc(C(=O)NCc3ccc(Cl)cc3)cc2/C1=N/Nc1ccccc1C(=O)O` [HL2-070-4], which “% PTP activity” value (at 20 μM) is on record?
Answer: 30 ± 4% (2) at 20 μM

Question: How did the “% PTP activity” value (concentration not given) turn out when `O=C1Nc2ccc(S(=O)(=O)NCc3ccncc3)cc2/C1=N/Nc1ccccc1[N+](=O)[O-]` [RPM145, 3-[(2-Nitrophenyl)hydrazono]-2-oxo-2,3-dihydro-1H-indole-5-sulfonic acid (pyridin-4-ylmethyl)amide] was run?
Answer: 37 + 11% (12)

Question: Which “% PTP activity” value (concentration not given) does the source give for `COc1ccc(CNS(=O)(=O)c2ccc3c(c2)/C(=N/Nc2ccccc2[N+](=O)[O-])C(=O)N3)cc1` [RPM138, 3-[(2-Nitrophenyl)hydrazono]-2-oxo-2,3-dihydro-1H-indole-5-sulfonic acid 4-methoxybenzylamide] here?
Answer: 36 ± 4% (6)

Question: `CC(C)NS(=O)(=O)c1ccc2c(c1)/C(=N/Nc1cccc(C(N)=O)c1)C(=O)N2` [RPM325, 3-[N′-(5-Isopropylsulfamoyl-2-oxo-1,2-dihydro-indol-3-ylidene)hydrazino]benzamide] was tested. Which IC50 did it give?
Answer: 33 to 100 µM

Question: And the “% PTP activity” value (at 20 μM)?
Answer: 40 + 4% (2) at 20 μM

Question: With `CN(Cc1ccccc1)S(=O)(=O)c1ccc2c(c1)/C(=N/Nc1ccccc1Cl)C(=O)N2` [HL2-016-16] as the compound, how does the “% PTP activity” value (concentration not given) read?
Answer: 64 ± 12% (6)

Question: Which results are given for `O=C1Nc2ccc(S(=O)(=O)O)cc2/C1=N/Nc1c(Cl)cccc1Cl` [RPM218, 2-Oxo-3-[(2,6-dichlorophenylhydrazono)]-2,3-dihydro-1H-indole-5-sulfonic acid]?
Answer: IC50: 33 to 100 µM; % PTP activity (at 20 μM): 53 ± 0.1% (2) at 20 μM

Question: Which “% PTP activity” value (concentration not given) does the source give for `CN(C)CCNS(=O)(=O)c1ccc2c(c1)/C(=N/Nc1ccccc1[N+](=O)[O-])C(=O)N2` [RPM146, 3-[(2-Nitrophenyl)hydrazono]-2-oxo-2,3-dihydro-1H-indole-5-sulfonic acid (2-dimethylaminoethyl)amide] here?
Answer: 57 ± 6% (6)

— patent US8987474B2 (University of South Florida, priority 2006, dated 2015)
